Reference: patent US9120805B2, “Substituted pyrrolo[1,2-A]pyrazin-1-ones and pyrazolo[1,5-A]pyrazin-4-ones as inhibitors of tankyrase and poly(ADP-ribose)polymerase activity” (Merck Patent GmbH, priority 2012, dated 2015)

Columns and labels:
tankyrase 1/2 = assay: Cellular inhibition of Tankyrase: increase of Axin2 level in DLD1 cells (Luminex); type: cell-based; conditions: 24 hours, read-out: EC50 tankyrase 1/2 (cell assay)
Description: Measurement of Cellular Inhibition of Tankyrase
Since Tankyrases have been described to modulate cellular level of Axin2 (Huang et al., 2009; Nature) the increase of Axin2 level is used as read-out for determination of cellular inhibition of Tankyrases in a Luminex based assay.
Cells of the colon carcinoma cell line DLD1 are plated in 96 well plates with 1.5×10^4 cells per well. Next day, cells are treated with a serial dilution of test compound in seven steps as triplicates with a final DMSO concentration of 0.3%. After 24 hours, cells are lysed in lysis buffer (20 mM Tris/HCl pH 8.0, 150 mM NaCl, 1% NP40, 10% Glycerol) and lysates are cleared by centrifugation through a 96 well filter plate (0.65 μm). Axin2 protein is isolated from cell lysates by incubation with a monoclonal anti-Axin2 antibody (R&D Systems #MAB6078) that is bound to fluorescent carboxybeads. Then, bound Axin2 is specifically detected with a polyclonal anti-Axin2 antibody (Cell Signaling #2151) and an appropriate PE-fluorescent secondary antibody. The amount of isolated Axin2 protein is determined in a Luminex^200 machine (Luminex Corporation) according to the manufacturer's instruction by counting 100 events per well. Inhibition of Tankyrase by test compounds results in higher levels of Axin2 which directly correlates with an increase of detectable fluorescence. As controls cells are treated with solvent alone (neutral control) and with a Tankyrase reference inhibitor IWR-2 (3E-06 M) which refers as control for maximum increase of Axin2. For analysis, the obtained data are normalized against the untreated solvent control and fitted for determination of the EC50 values using the Assay Explorer software (Accelrys).

[1] = target: T1, GST-tagged Tnks-1 (1023-1327 aa) (Homo sapiens, UniProt O95271); assay: TNKS1 activity ELISA (autoparsylation assay); type: biochemical
T1 construct: GST-tagged Tnks-1 (1023-1327 aa, prepared in-house); made in house
T1 sequence (O95271 1023-1327): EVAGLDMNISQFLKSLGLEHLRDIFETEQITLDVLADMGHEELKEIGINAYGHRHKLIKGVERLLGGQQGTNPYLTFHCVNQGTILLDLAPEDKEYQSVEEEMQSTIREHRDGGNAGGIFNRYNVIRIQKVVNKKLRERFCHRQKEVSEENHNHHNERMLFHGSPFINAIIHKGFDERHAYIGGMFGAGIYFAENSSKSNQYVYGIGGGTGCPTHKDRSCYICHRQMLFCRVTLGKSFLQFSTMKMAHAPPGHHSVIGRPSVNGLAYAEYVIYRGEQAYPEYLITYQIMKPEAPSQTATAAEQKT
Description: (§1) Description of the TNKS1 and TNKS2 ELISA Assay
(§2) Biochemical Activity Testing of TNKS 1 and 2: Activity ELISA (Autoparsylation Assay)
(§3) For analysis of autoparsylation activity of TNKS 1 and 2 an activity ELISA is performed: In the first step GST tagged TNKS is captured on a Glutathione coated plate. Then the activity assay with biotinylated NAD is performed in the absence/presence of the compounds. During the enzymatic reaction GST tagged TNKS transfers biotinylated ADP-ribose to itself from biotinylated NAD as co-substrate. For the detection streptavidin-HRP conjugate is added that binds to the biotinylated TNKS and is thereby captured to the plates. The amount of biotinylated resp. autoparsylated TNKS is detected with a luminescence substrate for HRP. The level of the luminescence signal correlates directly with the amount of autoparsylated TNKS and therefore with activity of TNKS.
(§4) The activity ELISA is performed in 384 well Glutathione coated microtiter plates (Express capture Glutathione coated plate, Biocat, Heidelberg, Germany). The plates are pre-equilibrated with PBS. Then the plates are incubated with 50 μl 20 ng/well GST-tagged Tnks-1 (1023-1327 aa, prepared in-house), respectively GST-tagged Tnks-2 (873-1166 aa, prepared in-house) in assay buffer (50 mM HEPES, 4 mM Mg-chloride, 0.05% Pluronic F-68, 2 mM DTT, pH 7.7) overnight at 4° C. The plates are washed 3 times with PBS-Tween-20. The wells are blocked by incubation at room temperature for 20 minutes with 50 μl blocking buffer (PBS, 0.05% Tween-20, 0.5% BSA). Afterwards the plates are washed 3 times with PBS-Tween-20. The enzymatic reaction is performed in 50 μl reaction solution (50 mM HEPES, 4 mM Mg-chloride, 0.05% Pluronic F-68, 1.4 mM DTT, 0.5% DMSO, pH 7.7) with 10 μM bio-NAD (Biolog, Life science Inst., Bremen, Germany) as co-substrate in the absence or presence of the test compound (10 dilution concentrations) for 1 hour at 30° C. The reaction is stopped by 3 times washing with PBS-Tween-20. For the detection 50 μl of 20 ng/μl Streptavidin, HRP conjugate (MoBiTec, Göttingen, Germany) in PBS/0.05% Tween-20/0.01% BSA are added and the plates are incubated for 30 minutes at room temperature. After three times washing with PBS-Tween-20 50 μl of SuperSignal ELISA Femto Maximum sensitivity substrate solution (ThermoFisherScientific (Pierce), Bonn, Germany) are added. Following a 1 minute incubation at room temperature luminescence signals are measured with an Envision multimode reader (Perkin Elmer LAS Germany GmbH) at 700 nm. The full value used is the inhibitor-free reaction. The pharmacological zero value used is XAV-939 (Tocris) in a final concentration of 5 μM. The inhibitory values (1050) are determined using either the program Symyx Assay Explorer® or Condosseo® from GeneData.

[2] = target: T2, GST-tagged Tnks-2 (873-1166 aa) (Homo sapiens, UniProt Q9H2K2); assay: TNKS2 activity ELISA (autoparsylation assay); type: biochemical
T2 construct: GST-tagged Tnks-2 (873-1166 aa, prepared in-house); made in house
T2 sequence (Q9H2K2 873-1166): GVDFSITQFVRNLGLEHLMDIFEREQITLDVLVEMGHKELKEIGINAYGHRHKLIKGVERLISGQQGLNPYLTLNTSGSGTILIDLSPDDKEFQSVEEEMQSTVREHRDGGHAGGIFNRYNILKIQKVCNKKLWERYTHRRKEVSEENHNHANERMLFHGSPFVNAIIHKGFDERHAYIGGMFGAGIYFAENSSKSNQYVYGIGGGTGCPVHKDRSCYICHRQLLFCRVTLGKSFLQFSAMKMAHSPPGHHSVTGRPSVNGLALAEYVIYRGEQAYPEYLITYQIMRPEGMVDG
Description: as §1, §2, §3, §4

[3] = target: T3, GST-tagged Tankyrase-1 (1023-1327 aa) (Homo sapiens, UniProt O95271); assay: Tankyrase 1 autoparsylation assay (HTRF enzyme assay); type: biochemical
T3 construct: GST-tagged Tankyrase-1 (1023-1327 aa)
T3 sequence (O95271 1023-1327): as the sequence (O95271 1023-1327) above
Description: (§5) Biochemical Activity Testing of Tankyrase 1 and 2: Autoparsylation Assay
(§6) The autoparsylation assay is run in two steps: the enzymatic reaction in which GST-tagged Tankyrase-1, resp Tankyrase-2 transferred biotinylated ADP-ribose to itself from biotinylated NAD as co-substrate and the detection reaction where a time resolved FRET between cryptate labelled anti-GST bound to the GST tag of the enzyme and Xlent® labelled-streptavidin bound the biotin-parsylation residue is analysed. The autoparsylation activity was detectable directly via the increase in HTRF signal.
(§7) The autoparsylation assay is performed as 384-well HTRF® (Cisbio, Codolet, France) assay format in Greiner low volume nb 384-well microtiter plates and is used for high throughput screen. 250 nM GST-tagged Tankyrase-1 (1023-1327 aa), respectively about 250 nM GST-tagged Tankyrase-2 (873-1166 aa) and 5 μM bio-NAD (Biolog, Life science Inst., Bremen, Germany) as co-substrate are incubated in a total volume of 5 μl (50 mM HEPES, 4 mM Mg-chloride, 0.05% Pluronic F-68, 1.4 mM DTT, 0.5% DMSO, pH 7.7) in the absence or presence of the test compound (10 dilution concentrations) for 90 min at 30° C. The reaction is stopped by the addition of 1 μl 50 mM EDTA solution. 2 μl of the detection solution (1.6 μM SA-Xlent® (Cisbio, Codolet, France), 7.4 nM Anti-GST-K® (Eu-labelled anti-GST, Cisbio, Codolet, France) in 50 mM HEPES, 800 mM KF, 0.1% BSA, 20 mM EDTA, 0.1% CHAPS, pH 7.0) are added. After 1 h incubation at room temperature the HTRF is measured with an Envision multimode reader (Perkin Elmer LAS Germany GmbH) at excitation wavelength 340 nm (laser mode) and emission wavelengths 615 nm and 665 nm. The ratio of the emission signals is determined. The full value used is the inhibitor-free reaction. The pharmacological zero value used is XAV-939 (Tocris) in a final concentration of 5 μM. The inhibitory values (IC50) are determined using either the program Symyx Assay Explorer® or Condosseo® from GeneData.

[4] = target: T4, GST-tagged Tankyrase-2 (873-1166 aa) (Homo sapiens, UniProt Q9H2K2); assay: Tankyrase 2 autoparsylation assay (HTRF enzyme assay); type: biochemical
T4 construct: GST-tagged Tankyrase-2 (873-1166 aa)
T4 sequence (Q9H2K2 873-1166): as the sequence (Q9H2K2 873-1166) above
Description: as §5, §6, §7

His-tagged Parp-1 = target: T5, His-tagged Parp-1 (Homo sapiens, UniProt P09874); assay: PARP-1 autoparsylation assay (HTRF); type: biochemical; conditions: PARP-1 autoparsylation HTRF assay
T5 construct: purchased Enzo Life Sciences GmbH
T5 sequence (P09874 whole entry): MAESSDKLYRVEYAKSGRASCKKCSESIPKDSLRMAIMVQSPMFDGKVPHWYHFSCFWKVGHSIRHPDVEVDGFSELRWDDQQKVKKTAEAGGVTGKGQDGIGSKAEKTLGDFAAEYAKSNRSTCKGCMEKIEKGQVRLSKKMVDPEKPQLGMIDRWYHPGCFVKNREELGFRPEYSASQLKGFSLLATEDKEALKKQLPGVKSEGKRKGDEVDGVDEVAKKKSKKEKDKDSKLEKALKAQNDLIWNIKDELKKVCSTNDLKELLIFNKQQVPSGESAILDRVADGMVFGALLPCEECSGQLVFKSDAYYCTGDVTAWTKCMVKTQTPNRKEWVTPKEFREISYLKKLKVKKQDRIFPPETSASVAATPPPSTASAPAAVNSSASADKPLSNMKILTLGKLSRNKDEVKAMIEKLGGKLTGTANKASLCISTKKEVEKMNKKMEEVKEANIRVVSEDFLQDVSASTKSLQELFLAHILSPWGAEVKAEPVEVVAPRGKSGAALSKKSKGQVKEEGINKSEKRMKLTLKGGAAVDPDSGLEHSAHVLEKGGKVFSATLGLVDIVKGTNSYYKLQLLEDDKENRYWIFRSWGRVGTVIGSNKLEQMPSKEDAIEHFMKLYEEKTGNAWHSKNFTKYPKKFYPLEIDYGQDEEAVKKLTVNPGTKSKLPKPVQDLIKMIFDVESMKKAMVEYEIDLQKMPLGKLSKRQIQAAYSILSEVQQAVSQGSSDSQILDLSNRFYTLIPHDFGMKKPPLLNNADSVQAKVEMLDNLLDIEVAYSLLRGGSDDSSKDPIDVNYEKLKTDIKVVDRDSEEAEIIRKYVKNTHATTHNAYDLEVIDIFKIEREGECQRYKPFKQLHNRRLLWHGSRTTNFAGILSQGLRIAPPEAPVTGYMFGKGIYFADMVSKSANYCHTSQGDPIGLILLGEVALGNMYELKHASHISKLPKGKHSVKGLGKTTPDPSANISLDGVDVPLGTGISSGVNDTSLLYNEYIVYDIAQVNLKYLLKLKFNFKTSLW
Excerpt: Description of the PARP1 Assay
Biochemical Activity Testing of PARP-1: Autoparsylation Assay
The autoparsylation assay is run in two steps: the enzymatic reaction in which
His-tagged Parp-1 transfers biotinylated ADP-ribose/ADP-ribose to itself from biotinylated NAD/NAD as co-substrate and the detection reaction where a time resolved FRET between cryptate labelled anti-His antibody bound to the His tag of the enzyme and Xlent® labelled-streptavidin bound the biotin-parsylation residue is analysed. The autoparsylation activity is detectable directly via the increase in HTRF signal.
The autoparsylation assay is performed as 384-well HTRF® (Cisbio, Codolet, France) assay format in Greiner low volume nb 384-well microtiter plates. 35 nM His-tagged Parp-1 (human, recombinant, Enzo Life Sciences GmbH, Lörrach, Germany) and a mixture of 125 nM bio-NAD (Biolog, Life science Inst., Bremen, Germany) and 800 nM NAD as co-substrate are incubated in a total volume of 6 μl (100 mM Tris/HCl, 4 mM Mg-chloride, 0.01% IGEPAL® CA630, 1 mM DTT, 0.5% DMSO, pH 8, 13 ng/μl activated DNA (BPS Bioscience, San Diego, US)) in the absence or presence of the test compound (10 dilution concentrations) for 150 min at 23° C. The reaction is stopped by the addition of 4 μl of the Stop/detection solution (70 nM SA-Xlent® (Cisbio, Codolet, France), 2.5 nM Anti-His-K® (Eu-labelled anti-His, Cisbio, Codolet, France) in 50 mM HEPES, 400 mM KF, 0.1% BSA, 20 mM EDTA, pH 7.0). After 1 h incubation at room temperature the HTRF is measured with an Envision multimode reader (Perkin Elmer LAS Germany GmbH) at excitation wavelength 340 nm (laser mode) and emission wavelengths 615 nm and 665 nm. The ratio of the emission signals is determined. The full value used is the inhibitor-free reaction. The pharmacological zero value used is Olaparib (LClabs, Woburn, US) in a final concentration of 1 μM. The inhibitory values (IC50) are determined using either the program Symyx Assay Explorer® or Condosseo® from GeneData.

IC50 (His-tagged Parp-1) [nM]	Compound	EC50 (tankyrase 1/2) [nM]	IC50 [1] [nM]	IC50 [2] [nM]	IC50 [3] [nM]	IC50 [4] [nM]
–	Cc1cc2c(=O)[nH]c(-c3ccc(C(C)(C)C)cc3)cn2c1 [Compound A38, 3-(4-tert-butyl-phenyl)-7-methyl-2H-pyrrolo[1,2-a]pyrazin-1-one]	< 300	< 300	< 300	–	–
–	Cc1cc2c(=O)[nH]c(-c3ccc(N4CCCC4)cc3)cn2n1 [Compound A37, 2-methyl-6-(4-pyrrolidin-1-yl-phenyl)-5H-pyrazolo[1,5-a]pyrazin-4-one]	300 to 3000	< 300	–	< 300	300 to 3000
300 to 3000	Cc1cc2c(=O)[nH]c(-c3cnn(C(C)(C)C)c3)cn2c1 [Compound A57, 3-(1-tert-butyl-1H-pyrazol-4-yl)-7-methyl-2H-pyrrolo[1,2-a]pyrazin-1-one]	–	< 300	300 to 3000	300 to 3000	300 to 3000
300 to 3000	O=c1[nH]c(-c2ccc(C3(O)CCCC3)cc2)cn2cc(F)cc12 [Compound A85, 7-fluoro-3-[4-(1-hydroxy-cyclopentyl)-phenyl]-2H-pyrrolo[1,2-a]pyrazin-1-one]	–	< 300	< 300	–	–
–	CC(C)(C)c1ccc(-c2cn3nc(CO)cc3c(=O)[nH]2)cc1 [Compound A18, 6-(4-tert-butyl-phenyl)-2-hydroxymethyl-5H-pyrazolo[1,5-a]pyrazin-4-one]	300 to 3000	< 300	< 300	< 300	300 to 3000
–	Cc1ccc2c(=O)[nH]c(-c3ccc(C(C)(C)O)cc3)cn12 [Compound A95]	< 300	–	< 300	–	–
< 300	CC(C)(O)c1ccc(-c2cn3c(F)c(F)cc3c(=O)[nH]2)cc1 [Compound A83, 6,7-difluoro-3-[4-(1-hydroxy-1-methyl-ethyl)-phenyl]-2H-pyrrolo[1,2-a]pyrazin-1-one]	–	< 300	< 300	–	–
–	CC(C)(C)c1ccc(-c2cn3cc(C#N)cc3c(=O)[nH]2)cc1 [Compound A92, 3-(4-tert-butyl-phenyl)-1-oxo-1,2-dihydro-pyrrolo[1,2-a]pyrazine-7-carbonitrile]	3000 to 50000	< 300	< 300	< 300	300 to 3000
300 to 3000	CC(C)(O)c1ccc(-c2cn3c(F)ccc3c(=O)[nH]2)cc1 [Compound A84, 6-fluoro-3-[4-(1-hydroxy-1-methyl-ethyl)-phenyl]-2H-pyrrolo[1,2-a]pyrazin-1-one]	–	< 300	< 300	–	–
–	O=c1[nH]c(-c2ccc(C3(O)COC3)cc2)cn2cccc12 [Compound A110]	300 to 3000	< 300	< 300	< 300	300 to 3000
–	CC(C)(C)c1ccc(-c2cn3nccc3c(=O)[nH]2)cc1 [Compound A15, 6-(4-tert-butyl-phenyl)-5H-pyrazolo[1,5-a]pyrazin-4-one]	< 300	< 300	< 300	< 300	< 300
–	CN1CCC(c2ccc(-c3cn4cc(F)cc4c(=O)[nH]3)cc2)CC1 [Compound A81, 7-fluoro-3-[4-(1-methyl-piperidin-4-yl)-phenyl]-2H-pyrrolo[1,2-a]pyrazin-1-one]	300 to 3000	< 300	< 300	< 300	300 to 3000
